# Measurements taken from US8034822B2, “Glucokinase activators” (Takeda San Diego, Inc., priority 2006, dated 2011).
# Target: T1, glucokinase (GK) (Homo sapiens, UniProt P35557)
# T1 construct: I.D. No. 1 corresponds to residues 12-465 of glucokinase; made in house; host or cells: E. coli DH10b-T1r, pFLAG-CTC plasmid
# T1 sequence (P35557 with tags, fused parts or gaps isoform P35557-2): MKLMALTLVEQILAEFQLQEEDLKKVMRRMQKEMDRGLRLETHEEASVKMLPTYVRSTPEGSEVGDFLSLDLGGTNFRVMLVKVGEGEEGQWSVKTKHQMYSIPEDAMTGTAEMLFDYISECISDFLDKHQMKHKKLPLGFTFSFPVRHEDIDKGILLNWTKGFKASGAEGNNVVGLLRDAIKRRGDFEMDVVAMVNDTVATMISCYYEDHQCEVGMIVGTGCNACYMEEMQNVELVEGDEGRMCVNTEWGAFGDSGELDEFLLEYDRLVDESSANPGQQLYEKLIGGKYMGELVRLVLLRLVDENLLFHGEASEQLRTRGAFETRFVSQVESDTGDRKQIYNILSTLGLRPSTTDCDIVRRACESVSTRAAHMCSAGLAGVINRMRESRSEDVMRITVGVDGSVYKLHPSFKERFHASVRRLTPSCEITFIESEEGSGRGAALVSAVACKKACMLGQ
# Test: enzymatic glucokinase activity assay (ATP consumption, KinaseGlo luminescence)
# Format: biochemical
# Settings: Against GK; Kact = concentration giving 50% of maximal increase in GK activity; 5 μM ATP, 5 mM Glucose, 60 min room temperature; values given as bins; read-out: pKact
# From the text: The activity of compounds as glucokinase activators may be assayed in vitro, in vivo or in a cell line. Provided below is an enzymatic glucokinase activity assay.
# Purified glucokinase may be obtained as follows. DNA encoding residues 12-465 of the full-length sequence of the human enzyme may be amplified by PCR and cloned into the HindIII and EcoRI sites of pFLAG-CTC (Sigma). SEQ. I.D. No. 1 corresponds to residues 12-465 of glucokinase.
# The expression of recombinant glucokinase protein may be carried out by transformation and growth of DH10b-T1r E. coli cells incorporating the (pFLAG-CTC) plasmid in LB media. Protein expression can be induced in this system by the addition of IPTG to the culture medium.
# Recombinant protein may be isolated from cellular extracts by passage over Sepharose Q Fast Flow resin (Pharmacia). This partially purified GK extract may then be further purified by a second passage over Poros HQ10 (Applied Biosystems). The purity of GK may be determined on denaturing SDS-PAGE gel. Purified GK may then be concentrated to a final concentration of 20.0 mg/ml. After flash freezing in liquid nitrogen, the proteins can be stored at −78° C. in a buffer containing 25 mM TRIS-HCl pH 7.6, 50 mM NaCl, and 0.5 mM TCEP.
# The activation properties of compounds for GK may be determined using a black 384-well-plate format under the following reaction conditions: 25 mM Hepes pH 7.2, 25 mM NaCl, 10 mM MgCl2, 0.01% Brij35, 1 mM DTT, 5 μM ATP, 5 mM Glucose 2% DMSO. The amount of ATP consumed may be determined quantitatively by addition of equal volume of luciferase reagent (luciferase+beetle luciferin—KinaseGlo Luminescent Kinase Assay kit from Promega). The luminescence intensity may be measured by using the Analyst HT from LJL Biosystems.
# The assay reaction may be initiated as follows: 4 μl of substrate mixture (12.5 μM ATP and 12.5 mM Glucose) was added to each well of the plate, followed by the addition of 2 μl of activator (2 fold serial dilutions for 11 data points for each activator) containing 10% DMSO. 4 μL of 1.25 nM GK solution may be added to initiate the reaction. The reaction mixture may then be incubated at room temperature for 60 min, and quenched and developed by addition of 10 μL of luciferase reagent. Luminescence intensities of the resulting reaction mixtures may be measured after a 10 min incubation at room temperature. The luminescence intensity may be measured by using the Analyst HT from LJL Biosystems.
# pKact and % ACTmax values may be calculated by non-linear curve fitting of the compound concentrations and luminescence intensities to a standard inhibition/activation equation.
row,EC50 [µM],SMILES
1,≥ 2,"O=C(Nc1ccccn1)C(CC1CCCCC1)n1cnc2ccc(F)cc2c1=O (centres unmarked) [Compound 36, 3-cyclohexyl-2-(6-fluoro-4-oxoquinazolin-3(4H)-yl)-N-(pyridin-2-yl)propanamide]"
2,≥ 2,"COc1ccc2ncn(C(CC3CCCCC3)C(=O)Nc3nccs3)c(=O)c2c1 (centres unmarked) [Compound 131, 3-cyclohexyl-2-(6-methoxy-4-oxoquinazolin-3(4H)-yl)-N-(thiazol-2-yl)propanamide]"
3,≤ 0.398,"NC(=O)c1ccc(NC(=O)C(CC2CCCCC2)n2cnc3cc(S(=O)(=O)C4CC4)ccc3c2=O)nc1 (centres unmarked) [Compound 91, 6-[3-Cyclohexyl-2-(7-cyclopropanesulfonyl-4-oxo-4H-quinazolin-3-yl)-propionylamino]-nicotinamide]"
4,1 to 1.58,"CN(C)CCNC(=O)c1ccc2c(=O)n(C(CC3CCCCC3)C(=O)Nc3ncc(Cl)s3)cnc2c1 (centres unmarked) [Compound 176, 3-(1-(5-chlorothiazol-2-ylamino)-3-cyclohexyl-1-oxopropan-2-yl)-N-(2-(dimethylamino)ethyl)-4-oxo-3,4-dihydroquinazoline-7-carboxamide]"
5,≥ 2,"COC(=O)c1ccc(NC(=O)C(CC2CCCCC2)n2cnc3ccc(F)cc3c2=O)nc1 (centres unmarked) [Compound 193, methyl 6-(3-cyclohexyl-2-(6-fluoro-4-oxoquinazolin-3(4H)-yl)propanamido)nicotinate]"
6,0.501 to 0.794,"CS(=O)(=O)c1ccc2ncn([C@@H](CC3CCCCC3)C(=O)Nc3ccc(C(N)=O)cn3)c(=O)c2c1 [Compound 93, 6-[3-Cyclohexyl-2-(6-methanesulfonyl-4-oxo-4H-quinazolin-3-yl)-propionylamino]-nicotinamide]"
7,1 to 1.58,"COC(=O)c1ccc(NC(=O)C(CC2CCCCC2)n2cnc3cc(F)ccc3c2=O)nc1 (centres unmarked) [Compound 205, methyl 6-(3-cyclohexyl-2-(7-fluoro-4-oxoquinazolin-3(4H)-yl)propanamido)nicotinate]"
8,≥ 2,"Cc1ccc(NC(=O)C(CC2CCCCC2)n2cnc3ccc(F)cc3c2=O)nc1 (centres unmarked) [Compound 192, 3-cyclohexyl-2-(6-fluoro-4-oxoquinazolin-3(4H)-yl)-N-(5-methylpyridin-2-yl)propanamide]"
9,≤ 0.398,"NC(=O)c1ccc(NC(=O)C(CC2CCCCC2)n2cnc3cc(S(=O)(=O)C4CCCC4)ccc3c2=O)nc1 (centres unmarked) [Compound 80, 6-[3-Cyclohexyl-2-(7-cyclopentanesulfonyl-4-oxo-4H-quinazolin-3-yl)-propionylamino]-nicotinamide]"
10,≥ 2,"CS(=O)(=O)c1ccc2c(=O)n(C(CC3CCCCC3)C(=O)Nc3ccc(C(=O)O)cn3)c(=O)[nH]c2c1 (centres unmarked) [Compound 64, 6-[3-Cyclohexyl-2-(7-methanesulfonyl-2,4-dioxo-1,4-dihydro-2H-quinazolin-3-yl)-propionylamino]-nicotinic acid]"
11,≤ 0.398,"NC(=O)c1ccc(NC(=O)C(CC2CCCCC2)n2cnc3cc(C(=O)NC4CC4)ccc3c2=O)nc1 (centres unmarked) [Compound 169, 3-(1-(5-carbamoylpyridin-2-ylamino)-3-cyclohexyl-1-oxopropan-2-yl)-N-cyclopropyl-4-oxo-3,4-dihydroquinazoline-7-carboxamide]"
12,≥ 2,"Cc1cnc(NC(=O)C(CC2CCCCC2)n2cnc3cc(S(C)(=O)=O)ccc3c2=O)s1 (centres unmarked) [Compound 61, 3-Cyclohexyl-2-(7-methanesulfonyl-4-oxo-4H-quinazolin-3-yl)-N-(5-methyl-thiazol-2-yl)-propionamide]"
13,1 to 1.58,"COC(=O)c1ccc(NC(=O)[C@H](CC2CCCCC2)n2cnc3ccc(F)cc3c2=O)nc1 [Compound 203, (S)-methyl 6-(3-cyclohexyl-2-(6-fluoro-4-oxoquinazolin-3(4H)-yl)propanamido)nicotinate]"
14,1 to 1.58,"O=C(Nc1ccc(F)cn1)C(CC1CCCCC1)n1cnc2cc(S(=O)(=O)C3CC3)ccc2c1=O (centres unmarked) [Compound 74, 3-Cyclohexyl-2-(7-cyclopropanesulfonyl-4-oxo-4H-quinazolin-3-yl)-N-(5-fluoro-pyridin-2-yl)-propionamide]"
15,0.501 to 0.794,"CS(=O)(=O)c1cc(Cl)c2ncn(C(CC3CCCCC3)C(=O)Nc3ccc(C(N)=O)cn3)c(=O)c2c1 (centres unmarked) [Compound 92, 6-[2-(8-Chloro-6-methanesulfonyl-4-oxo-4H-quinazolin-3-yl)-3-cyclohexyl-propionylamino]-nicotinamide]"
16,≥ 2,"CS(=O)(=O)c1ccc2c(=O)n(C(CC3CCCCC3)C(=O)Nc3ccccn3)cnc2c1 (centres unmarked) [Compound 60, 3-Cyclohexyl-2-(7-methanesulfonyl-4-oxo-4H-quinazolin-3-yl)-N-pyridin-2-yl-propionamide]"
17,1 to 1.58,"CS(=O)(=O)c1csc2c(=O)n(C(CC3CCCCC3)C(=O)Nc3ccc(C(N)=O)cn3)cnc12 (centres unmarked) [Compound 182, 6-(3-cyclohexyl-2-(7-(methylsulfonyl)-4-oxothieno[3,2-d]pyrimidin-3(4H)-yl)propanamido)nicotinamide]"
18,≥ 2,"O=C(Nc1ncc(F)s1)C(CC1CCCCC1)n1c(=O)[nH]c2ccc(F)cc2c1=O (centres unmarked) [Compound 57, 3-Cyclohexyl-2-(6-fluoro-2,4-dioxo-1,4-dihydro-2H-quinazolin-3-yl)-N-(5-fluoro-thiazol-2-yl)-propionamide]"
19,0.501 to 0.794,"COc1ccc2ncn(C(CC3CCCCC3)C(=O)Nc3ccc(Cl)cn3)c(=O)c2c1 (centres unmarked) [Compound 168, N-(5-chloropyridin-2-yl)-3-cyclohexyl-2-(6-methoxy-4-oxoquinazolin-3(4H)-yl)propanamide]"
20,0.501 to 0.794,"COc1ccc2ncn(C(CC3CCCCC3)C(=O)Nc3ccc(C(N)=O)cn3)c(=O)c2c1 (centres unmarked) [Compound 167, 6-(3-cyclohexyl-2-(6-methoxy-4-oxoquinazolin-3(4H)-yl)propanamido)nicotinamide]"
21,≥ 2,"O=C(Nc1ncc(Cl)s1)C(CC1CCCCC1)n1cnc2ccc(F)cc2c1=O (centres unmarked) [Compound 50, N-(5-Chloro-thiazol-2-yl)-3-cyclohexyl-2-(6-fluoro-4-oxo-4H-quinazolin-3-yl)-propionamide]"
22,≥ 2,"CS(=O)(=O)c1ccc2c(=O)n(C(CC3CCCCC3)C(=O)Nc3ccc(F)cn3)cnc2c1 (centres unmarked) [Compound 70, 3-Cyclohexyl-N-(5-fluoro-pyridin-2-yl)-2-(7-methanesulfonyl-4-oxo-4H-quinazolin-3-yl)-propionamide]"
23,≥ 2,"O=C(Nc1ccc(F)cn1)C(CC1CCCCC1)n1cnc2ccc(F)cc2c1=O (centres unmarked) [Compound 159, 3-cyclohexyl-2-(6-fluoro-4-oxoquinazolin-3(4H)-yl)-N-(5-fluoropyridin-2-yl)propanamide]"
24,0.501 to 0.794,"CN(C)CCNC(=O)c1ccc2c(=O)n(C(CC3CCCCC3)C(=O)Nc3ncc(Cl)s3)c(=O)[nH]c2c1 (centres unmarked) [Compound 177, 3-(1-(5-chlorothiazol-2-ylamino)-3-cyclohexyl-1-oxopropan-2-yl)-N-(2-(dimethylamino)ethyl)-2,4-dioxo-1,2,3,4-tetrahydroquinazoline-7-carboxamide]"
25,0.501 to 0.794,"O=C(NC1CC1)c1ccc2c(=O)n(C(CC3CCCCC3)C(=O)Nc3ncc(Cl)s3)c(=O)[nH]c2c1 (centres unmarked) [Compound 172, 3-(1-(5-chlorothiazol-2-ylamino)-3-cyclohexyl-1-oxopropan-2-yl)-N-cyclopropyl-2,4-dioxo-1,2,3,4-tetrahydroquinazoline-7-carboxamide]"
26,≥ 2,"Cc1ccc(NC(=O)C(CC2CCCCC2)n2cnc3c(cnn3C)c2=O)nc1 (centres unmarked) [Compound 110, 3-Cyclohexyl-2-(1-methyl-4-oxo-1H-pyrazolo[3,4-d]pyrimidin-5(4H)-yl)-N-(5-methylpyridin-2-yl)propanamide]"
